Data reported in ChEMBL document CHEMBL1275499, “Glycogen synthase kinase 3 is a potential drug target for African trypanosomiasis therapy” (Antimicrob Agents Chemother, 2008).

What was measured:
Trypanosoma brucei = test: microbe, parasite or virus in culture; assay type: functional, organism-based; settings: Trypanosoma brucei, 427, 48 h
Description: Antitrypanosomal activity against blood stream form of Trypanosoma brucei 427 assessed as growth inhibition after 48 hrs by alamar blue assay

[1] = Inhibition of Trypanosoma brucei recombinant MBP-fused GSK-3 short isoform expressed in Escherichia coli by scintillation proximity assay

SMILES	EC50 (Trypanosoma brucei) [nM]	IC50 [1] [nM]
O=C1Nc2ccc3ncsc3c2/C1=C/Nc1ccc(S(=O)(=O)Nc2ccccn2)cc1	119	1
Nc1nc(Nc2cccc(S(N)(=O)=O)c2)nn1C(=S)Nc1c(F)cccc1F	20	13
CN(C)CCCC(=O)Nc1nccc(/C(C#N)=C2\NC(C(C)(C)C)=CS2)n1	50	4
CN1CCC(C(=O)Nc2nccc(/C(C#N)=C3\NC(C(C)(C)C)=CS3)n2)CC1	65	30
CC(C)(C)C1=CS/C(=C(\C#N)c2ccnc(NC(=O)C3CCNCC3)n2)N1	200	46
CC(=O)N1CCC(C(=O)Nc2nccc(/C(C#N)=C3\NC(C(C)(C)C)=CS3)n2)CC1	410	22
CN(C)CC(=O)N1CCC(C(=O)Nc2nccc(/C(C#N)=C3\NC(C(C)(C)C)=CS3)n2)CC1	458	30
CC(C)(C)C1=CS/C(=C(\C#N)c2ccnc(NCCCCN3C(=O)CCC3=O)n2)N1	705	168
O=C1NC(=O)C(c2ccccc2[N+](=O)[O-])=C1Nc1ccc(O)c(Cl)c1	740	1000
N#CCCc1ccc2c(c1)-c1[nH]c3ccc([N+](=O)[O-])cc3c1CC(=O)N2 [ALSTERPAULLONE 2]	150	336
COc1ccc2c(c1)/C(=C/c1cnc[nH]1)C(=O)N2 [SU-9516]	180	352
